From US6479670B1, “Selective retinoid acid receptor agonists” (Hoffmann-La Roche Inc., priority 1999, dated 2002)

Test system: rat model of elastase-induced emphysema
Assay: Repair of alveoli in elastase-induced emphysema (rat model), morphometric analysis
Type: in vivo, male Sprague Dawley rats
Details: elastase-induced emphysema in rats
Method: RAR selective agonists were evaluated for its effects on alveolar repair in the rat model of elastase-induced emphysema in rats (Massaro et al. Nature (Medicine, 1997, 3, 675)). Animals were divided into treatment groups of approximately eight. Lung inflammation and alveolar damage was induced in male Sprague Dawley rats by a single instillation of pancreatic elastase(porcine derived, Calbiochem) 2 U/gram body mass. Three weeks post injury all-trans retinoic acid or RAR agonist was dissolved in dimethylsulfoxide (20 mg/ml) and stored at −20 C. Fresh working stocks were prepared fresh daily by dilution in PBS to a final concentration of 2 mg/ml. Animals treated with all-trans retinoic acid (0.5 mg/Kg ip) were dosed once daily by intraperitoneal injection, starting 21 days post injury. Control groups were challenged with elastase and 21 days later treated with Vehicle (DMSO/PBS) for 14 days. Animals were sacrificed 24 hours after the last dose of by exsanguination under deep anesthesia.
The lungs were inflated with 10% neutral buffered formalin by intratracheal instillation at a constant rate (1 ml/gram body mass/min). The lung was excised and immersed in fixative for 24 hours prior to processing. Standard methods were used to prepare 5 um paraffin sections. Sections were stained with Hematoxylin and Eosin (H%E). Computerized Morphometric analysis was performed to determine the average alveolar size and alveolar number (Table 1).

SMILES: COCC1(C)CCCOc2cc(C#Cc3ccc(C(=O)O)cc3)ccc21 (racemic) [A, 4-(5-methoxymethyl-5-methyl-2,3,4,5-tetrahydro-1-benzo[b]oxepin-8-yl-ethynyl)-benzoic acid]
- % repair area (0.1 mg/kg p.o.): 45.2%
- % repair area (0.3 mg/kg p.o.): 51.3%
- % repair area (0.5 mg/kg i.p.): 58%
